Key:
[1] = tested on: olfactory epithelium of migratory adult sea lamprey; assay: electro-olfactogram (EOG) recording of olfactory activity; format: in vivo; details: odorant pulsed over the nose, FIG. 2 insets
From the text: Using electro-olfactogram recording (EOG) to screen for olfactory activity. The EOG measures extracellular voltage transients believed to reflect large numbers of olfactory receptor generator potential (Sorensen et al. in: The Physiology of Fishes, 2nd ed., (ed., R. E. Evans), 375-406, (CRC Press, FL, 1998)). To accomplish EOG recording, freshly-captured migratory adult sea lamprey were anesthetized, immobilized, and their olfactory epithelium exposed following established protocols (Li et al., J. Gen. Physiol., 105, 569-589 (1995); and Li et al., Petromyzon marinus, J. Comp Physiol. A., 180, 429-438 (1997)). One electrode was placed on the head and the other positioned to find a region of maximum sensitivity to our standard, 10^−5 M L-arginine. Test odorants were then pulsed over the nose for 3-sec intervals with breaks. All stimuli were tested at least twice. Aliquots of appropriate solvents were diluted and tested as controls.

migratory sea lampreys = assay: behavioral assay in large 2-choice maze; format: in vivo, sea lamprey; details: 14 trials of 4 lampreys
Method: Confirming biological activity using a behavioral assay. Migratory sea lampreys were tested at night in large (9×1.8 meters (m)) 2-choice mazes supplied with natural lake and rivers waters (400 L min^−1) designed to simulate the scenario of lamprey encountering a river plume in a lake. Test odors were pumped down one side (in a way shown by dye to effect complete mixing) and appropriate controls (carriers, etc.) down the other. Trials lasted 15 min and commenced when groups of 4 sea lamprey were released from the upstream section of the maze and the time they spent in the stimulus side or its control noted. Experiments typically employed 14 trails and were evaluated by t-test after arc-sign transformation (Vrieze et al., Can. J. Fish. Aquat. Sci., 58, 2374-2385 (2001)).

[2] = tested on: adult lamprey olfactory system; details: with high specificity; Polkinghorne 2001, Li 1995, Li 1997; cited from earlier work

| Compound | EOG threshold (lowest concentration detected by EOG recording) [1] | behavioral activity (attraction) in maze (migratory sea lampreys; at 10^−12 M) | behavioral activity (attraction) in maze (migratory sea lampreys; at 10^−13 M) | behavioral activity (attraction) in maze (migratory sea lampreys; at 10^−11 M) | concentration at which the adult lamprey olfactory system detects the product [2] |
| --- | --- | --- | --- | --- | --- |
| CC(C)[C@@H](CC[C@@H](C)[C@H]1CC[C@H]2[C@@H]3[C@H](OS(=O)(=O)[O-])C[C@H]4C[C@@H](NCCCN5CCCC5=O)CC[C@]4(C)[C@H]3CC[C@]12C)OS(=O)(=O)[O-].[Na+].[Na+] [compound 3, petromyzonamine disulfate] | 10^−13 M | strongly attracted | strongly attracted |  |  |
| petromyzosterol disulfate [compound 2] | 10^−12 M |  |  | consistently attractive |  |
| C[C@H](CCC(=O)O)[C@H]1CC[C@H]2[C@@H]3[C@H](O)C[C@H]4C[C@H](O)CC[C@]4(C)[C@H]3C[C@H](O)[C@]12C [ACA, allocholic acid] |  |  |  |  | 10^−11 Molar (M) |
| C[C@H](CCCOS(=O)(=O)[O-])[C@H]1CC[C@H]2[C@@H]3[C@H](O)C[C@H]4C[C@H](O)CC[C@]4(C)[C@H]3C[C@H](O)[C@]12C.[Na+] [compound 1, petromyzonol sulfate, reference compound] | below 10^−12 M |  |  | only weak and somewhat inconsistent behavioral activity | 10^−12 Molar (M) |
